Among the data in US6589934B1, “Kv2.1 antagonists” (SmithKline Beecham Corporation, priority 1997, dated 2003) are IC50 values, retold here.

In this experiment the target is T1, human kv2.1 (Homo sapiens, UniProt Q14721).
T1 construct: A HindIII-Notl fragment containing full length 2.1 was isolated from pBS/kv2.1 and subcloned to pcDNA3 for expression; expressed in transfected cells
T1 sequence (Q14721 1-858): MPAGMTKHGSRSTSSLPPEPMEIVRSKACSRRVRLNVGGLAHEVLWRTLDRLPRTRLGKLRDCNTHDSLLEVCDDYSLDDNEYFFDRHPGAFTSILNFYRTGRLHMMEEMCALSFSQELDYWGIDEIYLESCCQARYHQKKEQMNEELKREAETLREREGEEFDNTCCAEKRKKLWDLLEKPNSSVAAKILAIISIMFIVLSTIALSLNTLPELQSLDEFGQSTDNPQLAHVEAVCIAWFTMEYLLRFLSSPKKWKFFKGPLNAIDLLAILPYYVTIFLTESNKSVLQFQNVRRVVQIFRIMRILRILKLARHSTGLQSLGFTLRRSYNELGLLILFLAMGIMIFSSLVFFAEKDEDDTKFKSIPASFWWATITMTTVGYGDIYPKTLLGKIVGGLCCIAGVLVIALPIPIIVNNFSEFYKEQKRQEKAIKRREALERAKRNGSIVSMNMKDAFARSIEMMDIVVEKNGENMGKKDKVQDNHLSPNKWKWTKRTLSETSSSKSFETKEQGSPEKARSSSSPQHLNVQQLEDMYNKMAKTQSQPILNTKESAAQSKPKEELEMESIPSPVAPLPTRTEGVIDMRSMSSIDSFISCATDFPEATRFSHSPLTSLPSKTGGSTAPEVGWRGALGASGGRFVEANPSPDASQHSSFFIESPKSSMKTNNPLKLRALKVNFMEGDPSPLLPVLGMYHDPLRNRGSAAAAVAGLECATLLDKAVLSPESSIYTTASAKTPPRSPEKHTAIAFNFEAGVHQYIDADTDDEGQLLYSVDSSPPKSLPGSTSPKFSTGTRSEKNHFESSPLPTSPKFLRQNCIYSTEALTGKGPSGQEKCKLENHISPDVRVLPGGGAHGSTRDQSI
Put plainly: Whole cell patch clamp block of Kv2.1 in stably expressing CHO cells. It is filed as cell-based. The conditions noted are these: CHO cells stably expressing Kv2.1, whole cell patch clamp. An excerpt:
Full length cDNA of human kv2.1 was amplified from human brain polyA RNA by PCR. Oligo primers used for PCR amplification were designed according to the GeneBank accession# X68302 . The sequences of the two primers are: (5′ PCR primer) 5′-[…] (SEQ ID NO: 1), (3′ PCR primer) 5′-[…] (SEQ ID NO: 2). The cDNA was subcloned into pBS and sequenced. A HindIII-Notl fragment containing full length 2.1 was isolated from pBS/kv2.1 and subcloned to pcDNA3 for expression. The clone was transferred to pcDNA3 under the CMV promotor. […] Specifically, 1.5 μg of plasmid DNA (1.2 μg of Kv2.1 Plasmid and 0.3 μg of GFP plasmid Green Lantern™ (GIBCO)) was pre-incubated with 100 μl of DMEM/F12 and 12 μl of lipofectamine for a minimum of 15 minutes. Following incubation 1.4 ml of DMEM/F12 was added and the mixture overlayed on CHO cells (70-90% confluent) in a 6 well tray (1.5 ml/well). After 6-8 hours incubation an additional 1.5 ml of DMEM/F12 media containing 10% FBS was added to the transfection reaction. After a further overnight incubation the cells were removed from the 6 well plate with […] and plated at single cell density (10% Confluency) in 6 well plates contianing 25 mm glass coverslips. After overnight incubation, GFP containing cells were patched for current.
Stable CHO lines were prepared by using the same transfection protocol as above excluding the GFP DNA. […]

By IC50 is commonly meant the concentration that inhibits the measured activity by half. On to `CN1C[C@@H]2CN(CCCCc3ccc4c(c3)OCCO4)C[C@H](C1)[C@@H]2OC(=O)c1ccc(Cl)cc1` [Example 4], for which the IC50 is about 300 nM.
Under “hanatoxin (ECRYLFGGCKTTSDCCKHLGCKFRDKYCAWDFTFS) [reference compound]” stands about 60 nM.
